Assay results from patent US20240207163A1, “RETINOL DERIVATIVE COMPOSITION AND USE THEREOF” (Inertia Shanghai Biotechnology Co., Ltd., priority 2021, published 2024).
Several values for one entry are separate records, joined by “and”; a condition that tells them apart may be missing. Identical values can stand only once.

Experiments:
Assay type in all cases: cell-based
[1] = test system: CRBPI mRNA; assay: Various anti-aging related mRNA expression experiment (qPCR), CRBPI; conditions: HFF-1 cells, 5 μg/mL HPR, 9 μg/mL retinyl propionate, alone or in combination, individual replicates
Experimental: (§1) RNA extraction: a cell sample was taken, a supernatant was removed, 1 mL of a TRIZON reagent was added into each well of a 6-well plate, the cells were stood, cracked, and transferred to a 1.5-mL EP tube, 0.2 mL of chloroform was added, and the mixture was shaken, uniformly mixed, stood on ice, and centrifuged at 12,000 rpm/min at 4° C. for 15 min; about 400 μL of an obtained supernatant was taken, isopropanol with the same volume was added, the mixture was lightly shaken, stood on ice at 4° C., and centrifuged at 12,000 rpm/min for 10 min; an obtained supernatant was removed, 1 mL of 75% ethanol was added into an obtained precipitate, an EP tube was shaken to float the precipitate to achieve a washing effect, the obtained product was centrifuged at 7,500 rpm/min at 4° C. for 10 min; an obtained supernatant was removed, a part of ethanol was left, the product was centrifuged at 7,500 rpm/min at 4° C. for 5 min, and residual ethanol was removed from the inner wall of the tube; and an obtained supernatant was removed, the liquid was aspirated, and a certain amount of RNA-free water was added for resuspension and dissolution. 2 μL of the product was analyzed on a SpectraMax iD3 multifunctional microplate reader for detecting the RNA concentration and A260/A280 value.
(§2) cDNA synthesis: the mRNA was subjected to reverse transcription into cDNA by using a HiFiScript cDNA synthesis kit.
(§3) Fluorescence quantification: the expression of the Elastin mRNA in the cell sample was detected by mixing an UltraSYBR Mixture premixed solution and the cDNA, and loading the mixture into a machine.
(§4) 3.1 Experimental content: an effect of 5 μg/mL of HPR and 9 μg/mL of retinyl propionate alone or in combination on expressions of collagen-related mRNAs in HFF-1 cells.
(§5) 3.2 Experimental method: the HFF-1 cells were seeded in a 96-well plate (3,000 cells/mL and […]) and administrated in a 5 μg/mL HPR group, a 9 μg/mL retinyl propionate group, and a 5 μg/mL HPR+9 μg/mL retinyl propionate group. A blank control was set at the same time. Total RNA of the cells was extracted at 24 h, 48 h, and 72 h and the expressions of the collagen-related mRNAs were detected by qPCR. (The specific operation steps referred to section 1.2)
(§6) 3.3 Experimental results: data was input by the Excel, subjected to statistical processing by a Prism (Version 7) software package, and expressed as meantstandard error. Each data was subjected to a one-way analysis of variance and p<0.05 was considered to be statistically different.

[2] = test system: HFF-1 cells; assay: Cytotoxicity experiment (CCK-8 cell viability); conditions: 24 h, 5 μg/mL HPR, 9 μg/mL retinyl propionate, alone or in combination, individual replicates
Experimental: 2.1 Experimental content: an effect of 5 μg/mL of HPR and 9 μg/mL of retinyl propionate alone or in combination on the viability of HFF-1 cells.
2.2 Experimental method: the HFF-1 cells were seeded in a 96-well plate (3,000 cells/mL and 100 μL per well) and administrated in a 5 μg/mL HPR group, a 9 μg/mL retinyl propionate group, and a 5 μg/mL HPR+9 μg/mL retinyl propionate group. A blank control was set at the same time. The cell viability after 24 h of the administration treatment was detected using a CCK-8 kit.
2.3 Experimental results: data was input by the Excel, subjected to statistical processing by a Prism (Version 7) software package, and expressed as meantstandard error. Each data was subjected to a one-way analysis of variance and p<0.05 was considered to be statistically different.

[3] = test system: Col-IV mRNA; assay: Various anti-aging related mRNA expression experiment (qPCR), Col-IV; conditions: HFF-1 cells, 5 μg/mL HPR, 9 μg/mL retinyl propionate, alone or in combination, individual replicates
Experimental: as §1, §2, §3, §4, §5, §6

[4] = test system: RARB mRNA; assay: Various anti-aging related mRNA expression experiment (qPCR), RARB; conditions: HFF-1 cells, 5 μg/mL HPR, 9 μg/mL retinyl propionate, alone or in combination, individual replicates
Experimental: as §1, §2, §3, §4, §5, §6

[5] = test system: Elastin mRNA; assay: Various anti-aging related mRNA expression experiment (qPCR), Elastin; conditions: HFF-1 cells, 5 μg/mL HPR, 9 μg/mL retinyl propionate, alone or in combination, individual replicates
Experimental: as §1, §2, §3, §4, §5, §6

## CC1=C(/C=C/C(C)=C/C=C/C(C)=C/C(=O)OCC(=O)C(C)(C)C)C(C)(C)CCC1 [HPR, hydroxypinacolone retinoate]
[1]; after 24 h
  CRBPI mRNA expression (blank control 1): 3.223 and 1.094 and 1.597
[1]; after 48 h
  CRBPI mRNA expression (blank control 1): 1.094 and 1.488 and 1.58
[1]; after 72 h
  CRBPI mRNA expression (blank control 1): 4.017 and 1.79 and 3.295
[2]
  viability of HFF-1 cells (blank control 100): 104.9 and 101.4 and 100.3
[3]; after 24 h
  Col IV mRNA expression (blank control 1): 1.357 and 1.014 and 1.223
[3]; after 48 h
  Col IV mRNA expression (blank control 1): 1.474 and 1.094 and 1.945
[3]; after 72 h
  Col IV mRNA expression (blank control 1): 1.165 and 1.265 and 0.9395
[4]; after 24 h
  RARB mRNA expression (blank control 1): 1.079 and 3.732 and 5.063
[4]; after 48 h
  RARB mRNA expression (blank control 1): 1.659 and 1.189 and 3.605
[4]; after 72 h
  RARB mRNA expression (blank control 1): 2.395 and 1.042 and 4.925
[5]; after 24 h
  Elastin mRNA expression (blank control 1): 1.778 and 14.52 and 1.029
[5]; after 48 h
  Elastin mRNA expression (blank control 1): 2.928 and 2.809 and 3.317
[5]; after 72 h
  Elastin mRNA expression (blank control 1): 1.963 and 3.52 and 4.112

## CCC(=O)OC/C=C(C)/C=C/C=C(C)/C=C/C1=C(C)CCCC1(C)C [retinyl propionate]
[1]; after 24 h
  CRBPI mRNA expression (blank control 1): 1.58 and 1.866 and 1.042
[1]; after 48 h
  CRBPI mRNA expression (blank control 1): 1.275 and 1.647 (2×)
[1]; after 72 h
  CRBPI mRNA expression (blank control 1): 3.272 and 1.087 and 1.072
[2]
  viability of HFF-1 cells (blank control 100): 100.2 and 100.8 and 95.66
[3]; after 24 h
  Col IV mRNA expression (blank control 1): 1 and 1.357 and 1.079
[3]; after 48 h
  Col IV mRNA expression (blank control 1): 1.385 and 1.485 and 1.117
[3]; after 72 h
  Col IV mRNA expression (blank control 1): 1.625 and 1.189 and 0.9794
[4]; after 24 h
  RARB mRNA expression (blank control 1): 1.301 and 1.214 and 2.828
[4]; after 48 h
  RARB mRNA expression (blank control 1): 1.301 and 1.602 and 1.079
[4]; after 72 h
  RARB mRNA expression (blank control 1): 1.803 and 1.165 and 1.301
[5]; after 24 h
  Elastin mRNA expression (blank control 1): 1.778 and 16.11 and 1.157
[5]; after 48 h
  Elastin mRNA expression (blank control 1): 1.866 and 2.77 and 3.01
[5]; after 72 h
  Elastin mRNA expression (blank control 1): 5.736 and 6.727 and 1.275
